# Where “and” joins values, the source holds several entries; their conditions need not be identical. Equal values may be shown once. Read-outs that look alike come from different tables or passages of the source. Where a SMILES comes first, the peptide text is derived from it. [ ]: non-standard residue; d: D form. The star is where a group is joined. Oleoyl = CCCCCCCC/C=C\CCCCCCCC(=O)*; Palmitoyl = CCCCCCCCCCCCCCCC(=O)*; Pentanoyl(4-Me) = CC(C)CCC(=O)*; Lauroyl = CCCCCCCCCCCC(=O)*; Octanoyl = CCCCCCCC(=O)*; X1 = O=C(CCCCCCCCCCCO)*; Hexanoyl = CCCCCC(=O)*; Pentanoyl = CCCCC(=O)*; Butyryl = CCCC(=O)*
# Experiments:
# [1] = system: erythrocyte suspensions of horse blood; details: horse erythrocytes 5% vol/vol, TRIS buffer pH 7.2, 1 h at 37°C, absorbance 540 nm, relative to melittin 100 μM, ± confidence interval (α = 0.05); for Hemolysis (%) 150 µM: 150 µM peptide; for Hemolysis (%) 250 µM: 250 µM peptide;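 on all read-outs here: Read-out is hemoglobin release into the supernatant, with a buffer-only blank subtracted as the 0% baseline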
# [2] = system: Xanthomonas axonopodis pv. vesicatoria 2133–2; assay type: cell-based; details: TSB, 25°C, 48 h, OD 600 nm; tested at 3.1, 6.2, 12.5, 25, 50 μM; three replicates, experiment repeated twice; MIC = lowest concentration with no growth
# Description: (§1) The following plant pathogenic bacterial strains were used: Erwinia amylovora PMV6076 (Institut National de la Recherche Agronomique, Angers, France), Pseudomonas syringae pv. syringae EPS94 (Institut de Tecnologia Agroalimentària, Universitat de Girona, Spain) and Xanthomonas axonopodis pv. vesicatoria 2133–2 (Instituto Valenciano de Investigaciones Agrarias, Valencia, Spain). All bacteria were stored in Luria Bertani (LB) broth supplemented with glycerol (20%) and maintained at -80°C. Bacteria were scrapped from LB agar after growing for 24–48 h at 25°C. The cell material was suspended in sterile water to obtain a suspension of 10^8 CFU mL^-1.
# (§2) Lyophilized peptides were solubilized in sterile Milli-Q water to a final concentration of 1 mM and filter sterilized through a 0.22-μm pore filter. For minimum inhibitory concentration (MIC) assessment, dilutions of the compounds were made to obtain a stock concentration of […]. For antibacterial activity twenty microlitres of each dilution were mixed in a microtiter plate well with 20 μL of the corresponding suspension of the bacterial indicator, 160 μL of Trypticase Soy Broth (TSB) (BioMèrieux, France) to a total volume of 200 μL. For antifungal activity 20 μL of each stock solution were mixed in a microtiter plate well with 80 μL of the corresponding suspension of the fungal pathogen and 100 μL of double concentrated PDB to a total volume of 200 μL containing 0.003% w/v of choramphenicol.
# (§3) Three replicates for each strain, compound and concentration were used. Microbial growth was determined by optical density measurement at 600 nm (Bioscreen C, Labsystem, Helsinki, Finland). For antibacterial activity microplates were incubated at 25°C with 20 sec shaking before hourly absorbance measurement for 48 h. For antifungal activity microplates were incubated at 20°C with 1 min shaking before absorbance measurement that were done every two hours during seven days. The experiment was repeated twice. The MIC was taken as the lowest compound concentration with no growth at the end of the experiment.
# [3] = system: Pseudomonas syringae pv. syringae EPS94; assay type: cell-based; details: 48 h
# Description: as §1, §2, §3
# [4] = system: Erwinia amylovora PMV6076; test: MIC, in vitro growth inhibition; assay type: cell-based; details: TSB, 25°C, 48 h, OD 600 nm; tested at 3.1, 6.2, 12.5, 25, 50 μM; three replicates, experiment repeated twice; MIC = lowest concentration with no growth
# Description: as §1, §2, §3
# [5] = system: Fusarium oxysporum f. sp. lycopersici FOL 3 race 2; test: MIC, antifungal growth inhibition; assay type: cell-based
# Description: Fusarium oxysporum f. sp. lycopersici FOL 3 race 2 (ATCC 201829, American Type Culture Collection) was used as fungal pathogen. The strain was cultured on potato dextrose agar (PDA) plates (Difco) and microconidia were obtained after growth at 25°C. The concentration of conidia was determined using a hemacytometer and adjusted to 10^4 conidia mL^-1.
# as §2, §3
# [6] = PDB with 0.003% chloramphenicol, 20°C, seven days, OD 600 nm, tested at 3.1, 6.2, 12.5, 25, 50 μM, three replicates, repeated twice
Compound,Hemolysis (%) 150 µM [1],Hemolysis (%) 250 µM [1],MIC Xav [2],MIC Pss [3],MIC Ea [4],"MIC Fo [5, 6]",MIC Fo [5],"MIC Pss ([3]; TSB, 25°C, OD 600 nm, tested at 3.1, 6.2, 12.5, 25, 50 μM, three replicates, experiment repeated twice, MIC = lowest concentration with no growth)"
"CCCCCCCC(=O)NCCCC[C@@H]1NC(=O)[C@H](CCCCN)NC(=O)[C@H](CC(C)C)NC(=O)[C@H](CCCCN)NC(=O)[C@H](CCCCN)NC(=O)[C@H](CCC(N)=O)NC(=O)[C@H](CC(C)C)NC(=O)[C@H](CCCCN)NC(=O)[C@H](CCCCN)NC(=O)[C@H](Cc2ccccc2)NC1=O [BPC498, c(KKLKK(CO-C7H15)FKKLQ)] (cyclo(FKKLQKKLKK(Octanoyl)))",78 ± 4%,100 ± 12%,6.2 to 12.5 µM,12.5 to 25 µM,25 to 50 µM,3.1 to 6.2 µM,,
"CCCCCCCCCCCCCCCC(=O)NCCCC[C@@H]1NC(=O)[C@H](CCCCN)NC(=O)[C@H](CC(C)C)NC(=O)[C@H](CCCCN)NC(=O)[C@H](CCCCN)NC(=O)[C@H](CCC(N)=O)NC(=O)[C@H](CC(C)C)NC(=O)[C@H](CCCCN)NC(=O)[C@H](CCCCN)NC(=O)[C@H](Cc2ccccc2)NC1=O [BPC502, c(KKLKK(CO-C15H31)FKKLQ)] (cyclo(FKKLQKKLKK(Palmitoyl)))",78 ± 1%,99 ± 2%,>50 µM,>50 µM,>50 µM,>50 µM,,
"CC(C)C[C@@H]1NC(=O)[C@H](CCCCN)NC(=O)[C@H](CCCCN)NC(=O)[C@H](CCC(N)=O)NC(=O)[C@H](CC(C)C)NC(=O)[C@H](CCCCN)NC(=O)[C@H](CCCCN)NC(=O)[C@H](Cc2ccccc2)NC(=O)[C@H](CCCCNC(=O)CCCCCCCCCCCO)NC(=O)[C@H](CCCCN)NC1=O [BPC524, c(KKLKK(CO-C11H22OH)FKKLQ)] (cyclo(FKKLQKKLKK(X1)))",100 ± 8%,100 ± 6%,6.2 to 12.5 µM,12.5 to 25 µM,25 to 50 µM,12.5 to 25 µM,,
"CCCCC(=O)NCCCC[C@@H]1NC(=O)[C@H](CCCCN)NC(=O)[C@H](CC(C)C)NC(=O)[C@H](CCCCN)NC(=O)[C@H](CCCCN)NC(=O)[C@H](CCC(N)=O)NC(=O)[C@H](CC(C)C)NC(=O)[C@H](CCCCN)NC(=O)[C@H](CCCCN)NC(=O)[C@H](Cc2ccccc2)NC1=O [BPC526, c(KKLKK(CO-C4H9)FKKLQ)] (cyclo(FKKLQKKLKK(Pentanoyl)))",62 ± 2%,78 ± 3%,<3.1 µM,12.5 to 25 µM,12.5 to 25 µM,6.2 to 12.5 µM,,
"CCCCCCCCCCCC(=O)NCCCC[C@@H]1NC(=O)[C@H](CCCCN)NC(=O)[C@H](CC(C)C)NC(=O)[C@H](CCCCN)NC(=O)[C@H](CCCCN)NC(=O)[C@H](CCC(N)=O)NC(=O)[C@H](CC(C)C)NC(=O)[C@H](CCCCN)NC(=O)[C@H](CCCCN)NC(=O)[C@H](Cc2ccccc2)NC1=O [BPC530, c(KKLKK(CO-C11H23)FKKLQ)] (cyclo(FKKLQKKLKK(Lauroyl)))",89 ± 7%,91 ± 9%,6.2 to 12.5 µM,12.5 to 25 µM,12.5 to 25 µM,6.2 to 12.5 µM,,
CCCCCC(=O)NCCCC[C@@H]1NC(=O)[C@H](CCCCN)NC(=O)[C@H](Cc2ccccc2)NC(=O)[C@H](CCCCN)NC(=O)[C@H](CCCCN)NC(=O)[C@H](CC(C)C)NC(=O)[C@H](CCCCN)NC(=O)[C@H](CCCCN)NC(=O)[C@H](CCC(N)=O)NC(=O)[C@H](CC(C)C)NC1=O [BPC582] (cyclo(FKK(Hexanoyl)LQKKLKK)),92 ± 3%,96 ± 10%,6.2 to 12.5 µM,6.2 to 12.5 µM,12.5 to 25 µM,12.5 to 25 µM,,
"CCCCCC(=O)NCCCC[C@@H]1NC(=O)[C@H](Cc2ccccc2)NC(=O)[C@H](CCCCN)NC(=O)[C@H](CCCCN)NC(=O)[C@H](CC(C)C)NC(=O)[C@H](CCCCN)NC(=O)[C@H](CCCCN)NC(=O)[C@H](CCC(N)=O)NC(=O)[C@H](CC(C)C)NC(=O)[C@H](CCCCN)NC1=O [BPC584, c(KKLKKFK(CO-nC5H11)KLQ)] (cyclo(FK(Hexanoyl)KLQKKLKK))",72 ± 5%,97 ± 12%,6.2 to 12.5 µM,12.5 to 25 µM,25 to 50 µM,25 to 50 µM,,
"CCCCCC(=O)NCCCC[C@@H]1NC(=O)[C@H](CC(C)C)NC(=O)[C@H](CCCCN)NC(=O)[C@H](CCCCN)NC(=O)[C@H](CCC(N)=O)NC(=O)[C@H](CC(C)C)NC(=O)[C@H](CCCCN)NC(=O)[C@H](CCCCN)NC(=O)[C@H](Cc2ccccc2)NC(=O)[C@H](CCCCN)NC1=O [BPC586, c(KKLK(CO-nC5H11)KFKKLQ)] (cyclo(FKKLQKKLK(Hexanoyl)K))",92 ± 9%,95 ± 20%,6.2 to 12.5 µM,6.2 to 12.5 µM,12.5 to 25 µM,12.5 to 25 µM,,
"CCCCCCCC/C=C\CCCCCCCC(=O)NCCCC[C@@H]1NC(=O)[C@H](CCCCN)NC(=O)[C@H](CC(C)C)NC(=O)[C@H](CCCCN)NC(=O)[C@H](CCCCN)NC(=O)[C@H](CCC(N)=O)NC(=O)[C@H](CC(C)C)NC(=O)[C@H](CCCCN)NC(=O)[C@H](CCCCN)NC(=O)[C@H](Cc2ccccc2)NC1=O [BPC622, c(KKLKK(CO-C17H33)FKKLQ)] (cyclo(FKKLQKKLKK(Oleoyl)))",91 ± 2%,97 ± 3%,3.1 to 6.2 µM,25 to 50 µM,>50 µM,>50 µM,,
"CCCCCC(=O)NCCCC[C@@H]1NC(=O)[C@H](CCCCN)NC(=O)[C@H](CC(C)C)NC(=O)[C@H](CCCCN)NC(=O)[C@H](CCCCN)NC(=O)[C@H](CCC(N)=O)NC(=O)[C@H](CC(C)C)NC(=O)[C@H](CCCCN)NC(=O)[C@H](CCCCN)NC(=O)[C@@H](Cc2ccccc2)NC1=O [BPC624, c(KKLKK(CO-nC5H11)fKKLQ)] (cyclo(KKLKK(Hexanoyl)[dF]KKLQ))",53 ± 5%,64 ± 9%,6.2 to 12.5 µM,12.5 to 25 µM,25 to 50 µM,6.2 to 12.5 µM,,
"CC(C)CCC(=O)NCCCC[C@@H]1NC(=O)[C@H](CCCCN)NC(=O)[C@H](CC(C)C)NC(=O)[C@H](CCCCN)NC(=O)[C@H](CCCCN)NC(=O)[C@H](CCC(N)=O)NC(=O)[C@H](CC(C)C)NC(=O)[C@H](CCCCN)NC(=O)[C@H](CCCCN)NC(=O)[C@@H](Cc2ccccc2)NC1=O [BPC626, c(KKLKK(CO-isoC5H11)fKKLQ)] (cyclo(KKLKK(Pentanoyl(4-Me))[dF]KKLQ))",51 ± 7%,54 ± 4%,6.2 to 12.5 µM,12.5 to 25 µM,25 to 50 µM,6.2 to 12.5 µM,,
"CCCC(=O)NCCCC[C@H]1NC(=O)[C@H](CCCCN)NC(=O)[C@H](CC(C)C)NC(=O)[C@H](CCCCN)NC(=O)[C@H](CCCCN)NC(=O)[C@H](CCC(N)=O)NC(=O)[C@H](CC(C)C)NC(=O)[C@H](CCCCN)NC(=O)[C@H](CCCCN)NC(=O)[C@H](Cc2ccccc2)NC1=O [BPC702, c(KKLKk(CO-C3H7)FKKLQ)] (cyclo(FKKLQKKLK[dK](Butyryl)))",1 ± 0.1%,,,,25 to 50 µM,< 12.5 µM and 3.1 to 6.2 µM,3.1 to 6.2 µM,
c(KKLKK(CO-C6H13)FKKLQ) [BPC592],,,6.2 to 12.5 µM,,25 to 50 µM,12.5 to 25 µM,,12.5 to 25 µM

# From publication PMC4805166, “Synthetic Cyclolipopeptides Selective against Microbial, Plant and Animal Cell Targets by Incorporation of D-Amino Acids or Histidine” (PLoS ONE, 2016)
